Results on 21 molecules are retold here after PubChem BioAssay (NCI).

Structures are written as SMILES.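 Step 1: Grow cells in 96-well plates. Step 2: Expose to compound for 48 hours at 5 concentrations. Step 3: Interpolate endpoints linearly; if unreached, use highest concentration. The concentration for 50% growth inhibition is given as GI50. TGI marks complete inhibition of growth.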 Where only a bound is given, the exact number is not on record here.

Holding throughout (experiment): NCI anticancer screen, dose series, 48 h
Assay [1] deals with U251 CNS.
Assay [2] deals with RPMI-8226 leukemia.
The subject of assay [3] is NCI-H460 lung.
In assay [4] the test system is SF-268 CNS.
The test system of assay [5] is HL-60(TB) leukemia.
The subject of assay [6] is KM12 colon.
Assay [7] has as its system A549 NSCLC.
The subject of assay [8] is CAKI-1 renal.
Assay [9] concerns EKVX NSCLC.
Assay [10] has as its system SR leukemia.

Take `Cc1cc(I)cc(CN(C)CCCN2CCCCC2)c1O`: the GI50 was 15.7 µM in assay [1]; 11.8 µM in assay [2]; 12.5 µM in [3]; 13.1 µM in assay [4]; 12.7 µM in assay [5]; 16.5 µM in [6]. The GI50 in [7] was 16.8 µM; in assay [8], 17 µM; in assay [9] it was 16.3 µM. Besides, the TGI in assay [1] is 33.4 µM; in assay [2] it was 29.9 µM; in assay [3], 26.2 µM; in [4], 27.5 µM; in assay [5] it was 29.7 µM; in assay [6], 39.6 µM. Also, the TGI amounted to 35.7 µM in [7], 35.3 µM in assay [8], 37.3 µM in [9] and 3.57 µM in [10].
In the case of `COc1cc(NCc2ccc3oc(=O)c(-c4ccccc4)nc3c2)cc(OC)c1OC`, the TGI in assay [1], in assay [2], in [3], in assay [4], in [5] and in assay [6] was greater than 10 µM throughout. Besides, the TGI in assay [7], in assay [8], in assay [9] and in [10] was greater than 10 µM in each case.
For `CN(C(=O)c1ccc(C(F)(F)F)cc1)c1ccc(Oc2ccc3c(c2)cc(C(=O)N2CCN(Cc4ccc(OC(F)F)cc4)CC2)n3C)nc1`, the GI50 in [1] is 6 µM; in assay [2], 0.156 µM; in assay [3], 3.25 µM; in [4] it was greater than 100 µM; in assay [5] it was less than 0.012 µM; in assay [6] it was 35.9 µM. The GI50 in [7] is 3.23 µM; in assay [8] it was 2.27 µM; in [9], less than 0.01 µM; in assay [10] it was less than 0.01 µM. Further, the TGI in [1], in [2], in assay [3], in assay [4], in assay [5] and in assay [6] was greater than 100 µM each time. For the same molecule, the TGI in [7], in assay [8], in assay [9] and in assay [10] was greater than 100 µM throughout.
For `COc1cc2c(c(OC)c1OC)-c1ccc(OC)c(=O)cc1C(NC(=O)c1ccc(N=[N+]=[N-])cc1)CC2` (stereo not drawn), the TGI in [1] is 4 µM; in assay [2], 4.41 µM; in assay [3], 0.0613 µM; in assay [4], greater than 100 µM; in assay [5], 0.441 µM; in [6], 0.0786 µM. Also, the TGI in [7] was greater than 100 µM; in assay [8], 0.243 µM; in assay [9], greater than 100 µM; in assay [10] it was greater than 100 µM.
With `COc1ccc(/C=C(/C#N)n2nnc3cccc(F)c32)cc1`, the GI50 is 1.79 µM in assay [1]; 2.18 µM in assay [2]; 0.703 µM in assay [3]; 2.31 µM in [4]; 0.527 µM in assay [5]; 0.519 µM in [6]. The GI50 in [7] was 1.46 µM; in assay [8] it was 0.733 µM; in [9] it was 2.37 µM; in assay [10], 0.48 µM. Also, the TGI was greater than 100 µM in [1]; greater than 100 µM in assay [2]; 4.62 µM in assay [3]; greater than 100 µM in assay [4]; 16.2 µM in [5]; 4.54 µM in assay [6]. Moreover, the TGI was greater than 100 µM in [7], 11.8 µM in [8], greater than 100 µM in [9] and greater than 100 µM in [10].
On to `CCN(CC)c1ccc(-c2cc(-c3cc(OC)c(OC)c(OC)c3)nc(N3CCOCC3)c2C#N)cc1`, for which the GI50 in [1] is 2.48 µM; in [2] it was 0.0387 µM; in assay [3], 0.412 µM; in assay [4], 5.96 µM; in assay [5] it was 0.463 µM; in assay [6] it was 1.99 µM. Besides, the GI50 in assay [7] was 1.37 µM; in assay [8], 0.366 µM; in [9] it was 2.64 µM; in assay [10], 0.163 µM. Besides, the TGI in assay [1] is greater than 100 µM; in assay [2], 44.7 µM; in assay [3], 5.73 µM; in assay [4] it was greater than 100 µM; in assay [5], 6.08 µM; in [6], greater than 85.9 µM. Moreover, the TGI is greater than 100 µM in [7], greater than 53.2 µM in assay [8], greater than 100 µM in assay [9] and 0.672 µM in [10].
With `COc1cc(C2c3cc4c(cc3OC(C)(O)C2C)OCO4)cc(OC)c1OC` (stereo not drawn), the TGI in assay [1] is greater than 100 µM; in assay [2] it was 0.721 µM; in assay [3] it was greater than 100 µM; in assay [4] it was greater than 100 µM; in assay [5], 0.53 µM; in assay [6], 57.6 µM. In addition, the TGI was 0.761 µM in [7], greater than 100 µM in assay [8], greater than 100 µM in assay [9] and 14.2 µM in assay [10].
Consider `O=S(=O)(CCn1c(Sc2ccccc2)c(Sc2ccccc2)c2ccccc21)c1ccccc1`, for which the TGI in [1], in assay [2], in [3], in [4], in assay [5] and in assay [6] was greater than 100 µM in each case. The TGI in assay [7], in assay [8], in assay [9] and in [10] was greater than 100 µM in each case.
In the case of `CCCCCCN(CCCCCC)C(=O)Cc1c2n(c3ccccc13)Cc1ccccc1-2`, the TGI is greater than 100 µM in assay [1]; greater than 100 µM in assay [2]; greater than 100 µM in assay [3]; greater than 100 µM in [4]; 46.4 µM in assay [5]; greater than 100 µM in assay [6]. For the same molecule, the TGI in [7], in [8], in assay [9] and in assay [10] was greater than 100 µM each time.
Regarding `Fc1cc2[nH]ncc2c2c3c(c(-c4cn[nH]c4)nc12)CCCC3`, the GI50 in assay [1] was 0.55 µM; in [2], 1.08 µM; in [3] it was 0.845 µM; in assay [4], 1.31 µM; in assay [5], 1.81 µM; in assay [6], 1 µM. Further, the GI50 is 0.844 µM in [7], 0.398 µM in assay [8], 0.795 µM in assay [9] and 0.355 µM in assay [10]. Also, the TGI was determined as 13.4 µM in [1]; 13.6 µM in [2]; 4.69 µM in [3]; 4.01 µM in [4]; 5.53 µM in assay [5]; 7.38 µM in assay [6]. Moreover, the TGI in [7] is greater than 100 µM; in assay [8] it was 7.08 µM; in assay [9], 3.98 µM; in assay [10] it was greater than 100 µM.
`CC(=O)/C(=C\c1cccc([N+](=O)[O-])c1)C(=O)Nc1ccccc1C`: the TGI in assay [1] is greater than 100 µM; in assay [2], greater than 100 µM; in assay [3], greater than 100 µM; in assay [4], greater than 100 µM; in assay [5] it was 57.9 µM; in assay [6], greater than 100 µM. Also, the TGI in assay [7], in assay [8], in [9] and in assay [10] was greater than 100 µM in each case.
Take `CN(C)c1nc(=Nc2ccc(N=c3nc(N(C)C)ss3)cc2)ss1`: the TGI was greater than 49.8 µM in assay [1]; 40.7 µM in [2]; greater than 100 µM in assay [3]; 99.2 µM in [4]; 45.3 µM in [5]; greater than 100 µM in assay [6]. In addition, the TGI in assay [7] was greater than 100 µM; in assay [8], greater than 59.5 µM; in [9], greater than 100 µM; in assay [10], 64.9 µM.
For `COC(=O)C1=C(C)NC(C)=C(C(=O)OCCCN2CCC(c3ccccc3)(c3ccccc3)CC2)C1c1cccc([N+](=O)[O-])c1` (stereo not drawn), the TGI in [1] was determined as 3.21 µM; in [2], 5.82 µM; in [3] it was 3.35 µM; in assay [4] it was 3.47 µM; in assay [5], 75 µM; in [6] it was 3.21 µM. In addition, the TGI in assay [7] worked out at 3.41 µM; in assay [8], 11.8 µM; in assay [9] it was 6.42 µM; in [10], 4.5 µM.
In the case of `C=C1NC(=O)C(C(C)CC)NC(=O)C2CSCC(NC(=O)CCC(=O)O)C(=O)NC(Cc3ccccc3)C(=O)NC(C)C(=O)NC(CC(C)CC)C(=O)NC(C(=O)NC(Cc3ccccc3)C(=O)N3CCCC3C(=O)N2)C(C)OC(=O)C(CO)NC(=O)C(C(O)COC)N(C)C(=O)C(C(C)C)NC(=O)C(CC(C)CC)NC1=O` (stereo not drawn), the GI50 in assay [1] is 0.0101 µM; in assay [2], 0.0217 µM; in [3], 0.00439 µM; in [4], 0.0342 µM; in [5] it was 0.0211 µM; in assay [6], 0.00529 µM. For the same molecule, the GI50 in assay [7] was 0.0268 µM; in assay [8] it was 0.0246 µM; in assay [9], 0.046 µM; in [10], 0.0259 µM. The TGI in [1], in assay [2], in assay [3], in assay [4], in [6] and in assay [7] was greater than 6 µM each time. Also, the TGI in [8], in [9] and in assay [10] was greater than 6 µM throughout.
For `CCN(CC)/C(SCc1ccccc1)=C(\C(Cl)=C(Cl)Cl)[N+](=O)[O-]`, the TGI was 49 µM in [1]; 65.6 µM in [2]; 55.1 µM in [3]; 46.6 µM in [4]; 38.9 µM in [5]; 36.5 µM in [6]. The TGI turned out to be 38.1 µM in assay [7], 73.5 µM in assay [8], 56.4 µM in assay [9] and 73.6 µM in assay [10].
With `CC(=O)OC1=CC(n2cc(F)c(=O)[nH]c2=O)OC(C)C1=O` (stereo not drawn), the TGI in assay [1], in assay [2], in assay [3], in [4], in assay [5] and in assay [6] was greater than 100 µM in each case. For the same molecule, the TGI in assay [7] was greater than 63.1 µM; in assay [8] it was greater than 100 µM; in assay [9], greater than 100 µM; in assay [10], greater than 100 µM.
Consider `N#CC(C#N)=CNC(N)=S`, for which the TGI in assay [1], in assay [2], in assay [3], in [4], in assay [5] and in assay [6] was greater than 100 µM each time. For the same molecule, the TGI in assay [7], in assay [8], in assay [9] and in assay [10] was greater than 100 µM throughout.
Consider `NS(=O)(=O)c1cc(Br)c(N=Nc2ccc(O)c3ncccc23)c(Br)c1`, for which the TGI is greater than 100 µM in assay [1]; greater than 100 µM in [2]; greater than 100 µM in [3]; greater than 100 µM in [4]; 29.4 µM in assay [5]; greater than 100 µM in assay [6]. Besides, the TGI in assay [7] is 60.7 µM; in assay [8] it was greater than 100 µM; in assay [9], greater than 100 µM; in assay [10], greater than 100 µM.
As to `OCc1ccc(-c2ccc(-c3ccc(CO)s3)o2)s1`, the TGI in assay [1] was 23.4 µM; in assay [2], 62.3 µM; in assay [3], 2.89 µM; in assay [4], greater than 97.1 µM; in assay [5] it was 38.2 µM; in assay [6], 85.3 µM. For the same molecule, the TGI was 48.1 µM in assay [7], 0.061 µM in assay [8], greater than 96.4 µM in assay [9] and 61.1 µM in assay [10].
With `COC1=CC(=O)C(C2CC(=O)c3c(O)cc(O)cc3O2)=CC1=O` (stereo not drawn), the TGI was 37.1 µM in assay [1]; greater than 100 µM in [2]; 51.8 µM in assay [3]; 38.7 µM in [4]; greater than 21.3 µM in [5]; 32.2 µM in [6]. Further, the TGI in assay [7] was greater than 72.6 µM; in assay [8], 33.1 µM; in assay [9], 30.8 µM; in [10], 15.6 µM.
On to `Clc1ccc(C(c2ccc(Cl)cc2)c2ccccn2)cc1`, for which the TGI in [1] is 30.9 µM; in assay [2], 84.5 µM; in assay [3], 34.2 µM; in assay [4] it was 69.7 µM; in assay [5], 55.8 µM; in [6], 42.5 µM. Also, the TGI in assay [7] came to 38.6 µM; in assay [8], 56.8 µM; in [9], 52.5 µM; in assay [10] it was 49.8 µM.
